Laboratory results published in US20210283204A1, “Lin28a ACTIVATOR AND USE THEREFOR” (TES Holdings CO., LTD., priority 2016, published 2021).

Tested on: Lin28a
Test: Lin28a expression induction in mouse vascular endothelial cell line TKD2 cell (RT-PCR, agarose gel)
Type: cell-based
Conditions: 100 μg/mL, cultured for 5 days, FIG. 1
Protocol: Mouse vascular endothelial cell line TKD2 cell (National Institute of Biomedical Innovation, Health, and Nutrition, distributed from JCRB Cell Bank, Cell number: IF050374) was sown in advance in a 6-well plate to be 4×10^4 cells/well, and cultured overnight at 33° C. in 5% CO2 environment.
Subsequently, on the day after the date when the mouse vascular endothelial cell line TKD2 cell was sown, the exocrine secretion of Saccharomyces boulardii prepared in (1) was added to the culture medium to reach a final concentration of 100 μg/mL, and cultured for 5 days while performing addition. After the addition, the culture medium was not exchanged at all. […]
After culturing, the cell was isolated and recovered by using 0.25% of Trypsin-EDTA solution (manufactured by ThermoFisher Corporation, 25200056). […] From the total RNA, cDNA was produced by using ImProm-II (registered trademark) reverse Transcription System (Promega A3801), and expression of Lin28a was monitored by PCR using primers shown in the following Table 1. […]

With ganglioside the “expression of Lin28a” value was “expression of Lin28a was not induced”.
